# From article PMC10383864, “Novel 2-Sulfanylquinazolin-4(3H)-one Derivatives as Multi-Kinase Inhibitors and Apoptosis Inducers: A Synthesis, Biological Evaluation, and Molecular Docking Study” (Molecules, 2023)
# Experiments:
# [1] = MTT cytotoxicity assay, normal human cell line; assay type: cell-based; settings: human, WI38 cells (normal human cells), 24 h treatment, mean ± SD of three experiments, read-out: In Vitro Cytotoxicity IC50 WI38
# Procedure: (§1) In addition, the safety profile of the 2-sulfanylquinazolin-4(3H)-one derivatives was evaluated against normal human cells (WI38) […]. The standard MTT (3-(4,5-dimethylthiazol-2-yl)-2,5 diphenyl tetrazolium bromide) colorimetric assay protocol was used, as described by Mosmann. […] The results were expressed as growth inhibitory concentration (IC50) values.
# (§2) The cell lines were obtained from ATCC (American Type Culture Collection). […] After incubation, the cells were treated with different concentrations of the synthesized compounds and incubated for 24 h. Afterward, the cells were washed with PBS, and 20 µL of MTT solution at 5 mg/mL was added, all incubated for 4 h. The MTT solution was discarded, and 100 µL of dimethyl sulfoxide (DMSO) was added per well. […] The relative cell viability in percentage was calculated as (A570 of treated cells/A570 of untreated cells) × 100.
# WI38 cells = experiment: MTT cytotoxicity assay, normal human cell line; assay type: cell-based; settings: 24 h treatment, mean ± SD of three experiments, read-out: In Vitro Cytotoxicity IC50 WI38
# Procedure: as §1, §2
# HeLa cells = experiment: MTT cytotoxicity assay; assay type: cell-based, human; settings: Homo sapiens, 24 h, 24 h treatment, mean ± SD of three experiments, read-out: In Vitro Cytotoxicity IC50 HeLa
# Procedure: as §1, §2
# HepG2 cells [2] = experiment: MTT cytotoxicity assay; assay type: cell-based, human; settings: Homo sapiens, HepG2, 24 h, 24 h treatment, mean ± SD of three experiments, read-out: In Vitro Cytotoxicity IC50 HepG2
# Procedure: as §1, §2
# MCF-7 cells = experiment: MTT cytotoxicity assay; assay type: cell-based, human; settings: Homo sapiens, MCF7, 24 h, MCF-7, MTT, 24 h treatment, mean ± SD of three experiments; read-out: In Vitro Cytotoxicity IC50 MCF-7
# Procedure: as §1, §2
# MDA-MB-231 cells = experiment: MTT cytotoxicity assay; assay type: cell-based, human; settings: Homo sapiens, MDA-MB-231, 24 h, MDA-MB-231, MTT, 24 h treatment, mean ± SD of three experiments; read-out: In Vitro Cytotoxicity IC50 MDA-MB-231
# Procedure: as §1, §2
# [3] = tested on: HepG2, MCF-7, MDA-231, and HeLa; experiment: MTT cytotoxicity assay, range over the tested cancer cell lines; assay type: cell-based; settings: Homo sapiens, range over HepG2, MCF-7, MDA-231 and HeLa, read-out: IC50 range against all tested cancer cell lines
# Procedure: as §1, §2
# EGFR = molecular target: T1, EGFR (Homo sapiens, UniProt P00533); experiment: Kinase inhibition, ELISA kit; assay type: biochemical; settings: mean ± SD of three experiments
# T1 construct: purchased
# T1 sequence (P00533 25-1210): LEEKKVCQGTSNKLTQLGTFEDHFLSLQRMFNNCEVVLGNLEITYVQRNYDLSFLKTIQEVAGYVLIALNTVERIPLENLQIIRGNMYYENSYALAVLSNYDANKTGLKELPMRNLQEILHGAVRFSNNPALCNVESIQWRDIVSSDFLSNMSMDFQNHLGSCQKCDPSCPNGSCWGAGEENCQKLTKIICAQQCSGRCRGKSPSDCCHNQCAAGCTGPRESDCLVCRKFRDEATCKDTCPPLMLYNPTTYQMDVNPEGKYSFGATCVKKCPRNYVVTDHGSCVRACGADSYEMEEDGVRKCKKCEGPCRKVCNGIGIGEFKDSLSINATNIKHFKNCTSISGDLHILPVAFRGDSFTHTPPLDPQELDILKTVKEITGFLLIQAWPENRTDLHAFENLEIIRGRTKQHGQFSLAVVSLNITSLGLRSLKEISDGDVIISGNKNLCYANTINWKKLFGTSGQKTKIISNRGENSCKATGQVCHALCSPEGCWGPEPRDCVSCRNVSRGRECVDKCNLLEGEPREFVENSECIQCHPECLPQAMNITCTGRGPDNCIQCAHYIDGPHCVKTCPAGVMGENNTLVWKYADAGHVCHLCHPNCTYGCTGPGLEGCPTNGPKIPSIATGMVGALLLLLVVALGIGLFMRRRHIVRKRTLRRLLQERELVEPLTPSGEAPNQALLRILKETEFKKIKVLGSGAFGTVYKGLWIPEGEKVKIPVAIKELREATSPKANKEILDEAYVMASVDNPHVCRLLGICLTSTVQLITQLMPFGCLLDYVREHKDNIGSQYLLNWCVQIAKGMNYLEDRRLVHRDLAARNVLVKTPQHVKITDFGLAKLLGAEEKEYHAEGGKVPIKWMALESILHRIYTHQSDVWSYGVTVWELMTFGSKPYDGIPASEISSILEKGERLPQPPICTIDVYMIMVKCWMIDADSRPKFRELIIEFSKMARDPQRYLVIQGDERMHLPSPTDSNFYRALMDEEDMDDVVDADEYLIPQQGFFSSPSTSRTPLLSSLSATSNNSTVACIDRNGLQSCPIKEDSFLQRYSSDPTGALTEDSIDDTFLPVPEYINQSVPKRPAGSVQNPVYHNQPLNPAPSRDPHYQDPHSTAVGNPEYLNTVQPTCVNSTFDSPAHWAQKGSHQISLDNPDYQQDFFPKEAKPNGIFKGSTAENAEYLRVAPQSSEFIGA
# Procedure: The corresponding kinase inhibitory kit assays were used, and the results are expressed as IC50 values (µM), as presented in Table 2. […] Afterward, the plate was incubated at room temperature for 2.5 h and then washed with PBS. A total of 100 μL of the prepared biotin antibody was added and incubated at room temperature for an additional 1 h, and then 100 μL of streptavidin solution was added and incubated at room temperature for another 45 min. After washing, 100 μL of TMB substrate reagent was added and incubated for 30 min at room temperature. Finally, about 50 μL of the stop solution was added and then read at 450 nm immediately. A standard curve was drawn, with concentrations on the X-axis and absorbance on the Y-axis.
# CDK2 = molecular target: T2, CDK2 (Homo sapiens, UniProt P24941); experiment: Kinase inhibition, ELISA kit; assay type: biochemical; settings: mean ± SD of three experiments
# T2 construct: purchased
# Procedure: (§3) The corresponding kinase inhibitory kit assays were used, and the results are expressed as IC50 values (µM), as presented in Table 2.
# (§4) Afterward, the plate was incubated at room temperature for 2.5 h and then washed with PBS. A total of 100 μL of the prepared biotin antibody was added and incubated at room temperature for an additional 1 h, and then 100 μL of streptavidin solution was added and incubated at room temperature for another 45 min. After washing, 100 μL of TMB substrate reagent was added and incubated for 30 min at room temperature. Finally, about 50 μL of the stop solution was added and then read at 450 nm immediately. A standard curve was drawn, with concentrations on the X-axis and absorbance on the Y-axis.
# HER2 = molecular target: T3, HER2 (Homo sapiens, UniProt P04626); experiment: Kinase inhibition, ELISA kit; assay type: biochemical; settings: mean ± SD of three experiments
# T3 construct: purchased
# T3 sequence (P04626 23-1255): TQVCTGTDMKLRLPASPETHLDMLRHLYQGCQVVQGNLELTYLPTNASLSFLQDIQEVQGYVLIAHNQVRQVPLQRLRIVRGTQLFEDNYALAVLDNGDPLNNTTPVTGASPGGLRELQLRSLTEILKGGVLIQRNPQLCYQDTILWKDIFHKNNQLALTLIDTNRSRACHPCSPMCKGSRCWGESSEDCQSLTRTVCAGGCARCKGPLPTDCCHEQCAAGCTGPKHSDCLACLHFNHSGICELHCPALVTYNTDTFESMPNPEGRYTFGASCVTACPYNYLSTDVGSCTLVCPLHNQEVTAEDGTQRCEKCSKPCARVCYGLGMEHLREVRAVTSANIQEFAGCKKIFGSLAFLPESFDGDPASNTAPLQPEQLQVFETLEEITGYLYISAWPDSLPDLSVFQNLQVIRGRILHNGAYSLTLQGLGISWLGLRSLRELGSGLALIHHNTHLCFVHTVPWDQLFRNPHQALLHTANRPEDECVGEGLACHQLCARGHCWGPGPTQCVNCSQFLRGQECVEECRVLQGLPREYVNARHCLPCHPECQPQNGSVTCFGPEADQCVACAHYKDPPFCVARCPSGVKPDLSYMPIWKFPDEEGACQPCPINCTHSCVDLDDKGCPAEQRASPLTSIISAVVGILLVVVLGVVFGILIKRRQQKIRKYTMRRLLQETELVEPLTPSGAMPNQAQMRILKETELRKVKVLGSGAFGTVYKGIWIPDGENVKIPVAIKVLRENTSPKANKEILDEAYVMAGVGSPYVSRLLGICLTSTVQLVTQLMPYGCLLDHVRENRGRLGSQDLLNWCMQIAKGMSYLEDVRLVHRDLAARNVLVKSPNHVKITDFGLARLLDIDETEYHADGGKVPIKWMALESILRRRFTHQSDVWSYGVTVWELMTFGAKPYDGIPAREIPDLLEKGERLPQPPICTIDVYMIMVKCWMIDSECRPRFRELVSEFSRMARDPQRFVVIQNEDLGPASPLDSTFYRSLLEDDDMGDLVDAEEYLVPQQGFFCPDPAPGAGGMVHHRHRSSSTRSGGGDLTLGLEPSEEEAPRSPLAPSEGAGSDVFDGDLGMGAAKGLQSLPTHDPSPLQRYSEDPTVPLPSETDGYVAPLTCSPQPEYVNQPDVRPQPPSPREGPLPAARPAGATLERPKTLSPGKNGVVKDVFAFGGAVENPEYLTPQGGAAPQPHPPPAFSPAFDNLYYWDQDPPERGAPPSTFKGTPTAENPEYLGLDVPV
# Procedure: as §3, §4
# VEGFR2 = molecular target: T4, VEGFR2 (Homo sapiens, UniProt P35968); experiment: Kinase inhibition, ELISA kit; assay type: biochemical; settings: mean ± SD of three experiments
# T4 construct: purchased
# T4 sequence (P35968 20-1356): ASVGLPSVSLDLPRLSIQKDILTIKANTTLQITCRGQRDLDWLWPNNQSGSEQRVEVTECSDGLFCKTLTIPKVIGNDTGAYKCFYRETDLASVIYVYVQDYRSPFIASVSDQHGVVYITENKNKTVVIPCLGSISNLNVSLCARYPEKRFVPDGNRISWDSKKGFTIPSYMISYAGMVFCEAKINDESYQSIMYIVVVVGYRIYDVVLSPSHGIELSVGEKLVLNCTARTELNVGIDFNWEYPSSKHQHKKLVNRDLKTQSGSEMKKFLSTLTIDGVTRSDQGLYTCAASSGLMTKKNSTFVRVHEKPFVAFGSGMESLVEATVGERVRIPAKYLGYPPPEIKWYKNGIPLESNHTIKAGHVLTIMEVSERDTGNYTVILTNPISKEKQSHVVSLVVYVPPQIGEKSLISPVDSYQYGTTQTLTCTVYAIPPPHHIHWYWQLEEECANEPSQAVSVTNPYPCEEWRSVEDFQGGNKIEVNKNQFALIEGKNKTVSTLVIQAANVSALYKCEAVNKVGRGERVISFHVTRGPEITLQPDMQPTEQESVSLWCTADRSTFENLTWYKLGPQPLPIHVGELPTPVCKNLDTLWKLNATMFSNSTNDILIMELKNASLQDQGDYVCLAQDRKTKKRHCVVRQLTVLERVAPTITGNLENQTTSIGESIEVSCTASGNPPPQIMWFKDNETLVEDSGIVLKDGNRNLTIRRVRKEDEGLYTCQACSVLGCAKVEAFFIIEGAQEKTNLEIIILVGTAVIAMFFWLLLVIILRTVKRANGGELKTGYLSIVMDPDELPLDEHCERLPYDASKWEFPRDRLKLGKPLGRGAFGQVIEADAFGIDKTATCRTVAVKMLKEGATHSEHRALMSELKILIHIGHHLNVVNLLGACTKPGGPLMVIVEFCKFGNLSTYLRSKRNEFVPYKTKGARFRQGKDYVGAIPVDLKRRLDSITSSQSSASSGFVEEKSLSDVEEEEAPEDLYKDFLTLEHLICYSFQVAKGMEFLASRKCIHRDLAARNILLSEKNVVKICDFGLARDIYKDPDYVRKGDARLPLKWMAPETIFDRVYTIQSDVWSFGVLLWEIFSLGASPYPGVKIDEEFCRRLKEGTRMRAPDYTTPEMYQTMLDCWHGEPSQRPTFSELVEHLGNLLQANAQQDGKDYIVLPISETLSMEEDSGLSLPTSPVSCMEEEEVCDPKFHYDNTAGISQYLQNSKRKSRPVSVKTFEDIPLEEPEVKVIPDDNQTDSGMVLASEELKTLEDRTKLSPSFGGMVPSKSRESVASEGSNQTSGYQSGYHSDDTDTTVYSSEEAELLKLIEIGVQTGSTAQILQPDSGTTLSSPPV
# Procedure: . The corresponding kinase inhibitory kit assays were used, and the results are expressed as IC50 values (µM), as presented in Table 2. […]. The inhibitory activity of compound 5d against CDK2, HER2, EGFR, and VEGFR2 was evaluated using the corresponding human kinases ELISA kit (Enzyme-Linked Immunosorbent Assay). In brief, specific antibodies for each kinase were seeded on a 96-well plate, and 100 μL of the standard solution or compound 5d was added. Afterward, the plate was incubated at room temperature for 2.5 h and then washed with PBS. A total of 100 μL of the prepared biotin antibody was added and incubated at room temperature for an additional 1 h, and then 100 μL of streptavidin solution was added and incubated at room temperature for another 45 min. After washing, 100 μL of TMB substrate reagent was added and incubated for 30 min at room temperature. Finally, about 50 μL of the stop solution was added and then read at 450 nm immediately. A standard curve was drawn, with concentrations on the X-axis and absorbance on the Y-axis.
# HepG2 cells [4] = experiment: Flow cytometry analysis of cell cycle; assay type: cell-based, human; settings: HepG2, 7.1 µM, 24 h
# Procedure: (§5) In order to investigate apoptosis, the most cytotoxic compound in anti-proliferative assay 5d was further exposed to […] using the standard Annexin V/PI double staining procedure.
# Flow cytometry analysis was conducted to assess the effect of compound 5d on the cell cycle distribution in HepG2 cells. The Flow Cytometry Kit for cell cycle analysis (ab139418_Propidium Iodide Flow Cytometry Kit/BD) was used in this test. First, the HepG2 cells were seeded in six-well plates at a density of 2 × 10^5 cells/well and incubated for 24 h. In the second step, 10% FBS was added, and the cells were incubated at 37 °C and 5% CO2. The medium was replaced with (DMSO 1% v/v) containing 7.1 µM of compound 5d and then incubated for 24 h. After that, the cells were fixed with 70% ethanol at 4 °C for 12 h and washed with cold PBS, and then rinsed with PBS. In the last step, 100 μL of RNase A was added to each well and incubated at 37 °C for 30 min and stained with 400 μL PI in the dark at room temperature for an additional 30 min. The stained cells were measured using an Epics XL-MCL™ Flow Cytometer (Beckman Coulter), and the data were analyzed using Flowing software (version 2.5.1, Turku Centre for Biotechnology, Turku, Finland).
# HepG2 cells [5] = experiment: Annexin V-FITC/PI apoptosis assay; assay type: cell-based, human; settings: HepG2, 7.1 µM, 24 h
# Procedure: as §5
# The apoptotic and necrotic effect of compound 5d was investigated using flow cytometry, as described in [43]. The HepG2 cells were treated with 7.1 µM of compound 5d for 24 h. After treatment, the cells were collected by trypsinization, centrifuged, and washed two times with PBS. A suspension of cells in 500 μL binding buffer was double stained with 5 μL Annexin V-FITC and 5 μL PI in the dark at room temperature for 15 min. The stained cells were measured using an Epics XL-MCL™ Flow Cytometer (Beckman Coulter), and the data were analyzed using Flowing software (version 2.5.1, Turku Centre for Biotechnology, Turku, Finland).
# Bax = experiment: RT-PCR of apoptosis-related genes in HepG2 cells; assay type: cell-based, human; settings: HepG2 cells treated with 5d, control = 1, increase
# Procedure: (§6) RT-PCR reactions were carried out to investigate the relative gene expression of apoptosis-related genes, including the proapoptotic genes Bax, caspases 3 and 9, and the anti-apoptotic Bcl2 gene. […] Therefore, it can be concluded that the induction of apoptosis in HepG2 cells upon treatment with 5d is associated with the upregulation of proapoptotic genes and the downregulation of anti-apoptotic genes.
# (§7) The level of apoptotic markers caspase-3, caspase-9, Bax, and Bcl-2 was measured using BIORAD iScript TM One-Step RT-PCR kit with SYBR® Green. According to the manufacturer’s instructions, the kit was used in three subsequent steps.
# (§8) mRNA isolation of up to 1 × 10^7 cells was carried out using an RNeasy extraction kit. Cells were disrupted in RNeasy Lysis Buffer (RLT buffer) and homogenized. Ethanol was then added to make a lysate and provoke the selective binding of RNA to the RNeasy membrane. The sample was then applied to the RNeasy mini spin column, where total RNA binds to the membrane while contaminants pass through. The RNA was then eluted in RNase-free water.
# (§9) All the following reagents were mixed to make about 50 μL mixture: 2X SYBR® Green RT-PCR reaction mixture (25 μL), forward primer (10 μM; 1.5 μL), reverse primer (10 μM; 1.5 μL), nuclease-free H2O (11 μL), RNA template (1 pg to 100 ng total RNA; 10 μL) and iScript reverse transcriptase for One-Step RT-PCR (1 μL).
# (§10) The whole reaction mixture was incubated in a real-time thermal detection system (Rotorgene) as follows: cDNA synthesis (10 min at 50 °C), iScript reverse transcriptase inactivation (5 min at 95 °C), PCR cycling and detection (30–45 cycles):10 s at 95 °C and 30 s at 55 °C to 60 °C (data collection step) and melt curve analysis: 1 min at 95 °C, 1 min at 55 °C and 10 s at 55 °C–95 °C (80 cycles, increasing each by 0.5 °C each cycle).
# Bcl2 = experiment: RT-PCR of apoptosis-related genes in HepG2 cells; assay type: cell-based, human; settings: HepG2 cells treated with 5d, control = 1, downregulated
# Procedure: as §6, §7, §8, §9, §10
# caspase-3 = experiment: RT-PCR of apoptosis-related genes in HepG2 cells; assay type: cell-based, human; settings: HepG2 cells treated with 5d, control = 1, increase
# Procedure: as §6, §7, §8, §9, §10
# caspase-9 = experiment: RT-PCR of apoptosis-related genes in HepG2 cells; assay type: cell-based, human; settings: HepG2 cells treated with 5d, control = 1, increase
# Procedure: as §6, §7, §8, §9, §10
SMILES,IC50 at 24 h [1] [µM],IC50 (HeLa cells) [µM],IC50 (HepG2 cells [2]) [µM],IC50 (MCF-7 cells) [µM],IC50 (MDA-MB-231 cells) [µM],IC50 [3] [µM],also measured
"Cc1ccc(-n2c(SCc3ccc(Cl)cc3)nc3ccc(F)cc3c2=O)cc1 [Compound 5d, 2-(4-Chloro-benzylsulfanyl)-6-fluoro-3-(4-methylArenyl)-3H-quinazolin-4-one]",40.9,6.38 ± 0.4,7.1 ± 0.6,2.48 ± 0.2,1.94 ± 0.1,1.94 to 7.1,"IC50 (WI38 cells): 64.3 ± 3.5 µM; IC50 (EGFR): 0.22 ± 0.013 µM; IC50 (CDK2): 2.1 ± 0.126 µM; IC50 (HER2): 0.184 ± 0.008 µM; IC50 (VEGFR2): 0.336 ± 0.009 µM; phase of cell cycle arrest (HepG2 cells [4]): S phase; drop in the cell population at the G0-G1 phase (HepG2 cells [4]; in comparison to the control): 4.5%; drop in the cell population at the G2/M phase (HepG2 cells [4]; in comparison to the control): 4.73%; increase in the cell population in the S phase (HepG2 cells [4]; in comparison to the control): 9.23%; necrosis, % of cell population (HepG2 cells [5]; control 1.45%): 3.08%; total apoptosis, % of cell population (HepG2 cells [5]; control 2.28%): 28.04%; gene expression of Bax, fold change (Bax): three; expression of anti-apoptotic gene Bcl2, fold change (Bcl2): 0.4 fold; gene expression of caspase-3, fold change (caspase-3): three; gene expression of caspase-9, fold change (caspase-9): two"
"Cc1ccc(-n2c(SCc3ccc(F)cc3)nc3ccc(F)cc3c2=O)cc1 [Compound 5e, 2-(4-Fluoro-benzylsulfanyl)-6-fluoro-3-(4-methylArenyl)-3H-quinazolin-4-one]",55.8 ± 3.2,38.2 ± 2.3,29.5 ± 2.2,25.2 ± 1.9,19.2 ± 1.5,19.2 to 38.2,melting point: 170 to 172 °C
"COc1cccc2c1C(=O)c1c(O)c3c(c(O)c1C2=O)C[C@@](O)(C(=O)CO)C[C@@H]3O[C@H]1C[C@H](N)[C@H](O)[C@H](C)O1 [Dox., doxorubicin, reference compound]",,,4.5 ± 0.2,,,,
"CCN(CC)CCNC(=O)c1c(C)[nH]c(/C=C2\C(=O)Nc3ccc(F)cc32)c1C [Sunitinib, sunitinib, reference compound]",77.3 ± 4.3,21.8 ± 1.7,11.3 ± 1,24.8 ± 1.8,19 ± 1.5,,
